Assay results taken from paper PMC7203153, “Rational identification and characterisation of peptide ligands for targeting polysialic acid” (Scientific Reports, 2020).
Where a SMILES comes first, the peptide text is derived from it.

Assays:
[1] = Fluorescence anisotropy (FA) assay of peptide–PSA binding; parameters: species or system Escherichia coli
Method: Peptides (Table 2) were synthesized at >95% purity (confirmed with HPLC) by Biomatik (see Supplementary Information). All peptides were N-terminally acetylated and C-terminally labelled with tetramethylrhodamine dye (TAMRA). TAMRA was chosen as a label due to its pH insensitivity compared to FAM (fluorescein) and related dyes commonly used for fluorescence assays. Experiments were conducted in black 384-well plates with non-binding surface (NBS, Corning, Inc.) to minimize background binding and enhance signal-to-noise ratio in the fluorescence-based binding assay. Titrations were carried out through addition of TAMRA-labelled peptide (8 μL, final concentration 20 nM) to CA (72 μL, final concentrations 0–1500 μM) in PBS, pH 7.4 (10 mM phosphate, 100 mM NaCl), and solutions were incubated with agitation to equilibrium at room temperature (3 h, ~20 °C). Parallel and perpendicular intensities were subsequently measured at 530 nm excitation (band width 5 nm) and 580 nm emission (band width 20 nm) in fluorescence polarization mode with a Tecan Infinite M1000 Pro plate reader. Total fluorescence intensities were also measured as a control for fluorophore properties with target binding; fluorescence intensities of free peptide were determined to be approximately equivalent to intensities with peptide–CA mixtures. At higher concentrations of free CA (control with no peptide addition), attenuation of detected light differed in parallel and perpendicular planes, so respective intensities were subtracted from peptide–CA intensities prior to anisotropy calculations. […] Unique samples were screened in at least triplicate within each titration experiment, and each peptide titration was carried out at least twice. In experimental repeats, peptide locations on plates were varied to prevent location-specific effects, if any, and different combinations of peptides were assessed at once. Anisotropies were calculated from corrected parallel and perpendicular intensities, and values were fit to the four-parameter logistic binding model[70] in MATLAB. Prior to curve fitting, anisotropy values for each peptide were transformed through subtraction of minimum values to enhance comparison between peptides. The resulting translations in binding curves were identical, within error, to change in anisotropy curves obtained through subtraction of anisotropy of free labelled peptide. Bmax and KD values obtained were used in the calculation of Bmax/KD ratios for comparison to microarray intensity values, and the Pearson correlation coefficient (r) was determined.

[2] = Peptide microarray affinity screening against α-2,8-PSA (colominic acid); format: binding, Escherichia coli; conditions: 10 μM CA
Method: Peptide library synthesis, microarray preparation, and microarray screening were performed as described previously[25] with the following specifications. Siglec-related sequences were N-terminally acetylated to match the charge of the corresponding protein fragment. All peptides were printed in triplicate (60 nL spots), and each initial affinity screening was carried out at least three times. Screening was conducted with 10 μM colominic acid (CA; 5 mL per microarray), the Escherichia coli homolog of α-2,8-PSA identical in structure to human-derived PSA[67], and with antibody-based chemiluminescent detection of CA. For selectivity screening, microarrays were challenged with 10 μM CA with 0, 0.1, 1, and 10 μM α-2,8/9-PSA in separate conditions (5 mL total volume each), where molar concentrations were based on molecular weight estimation of synthesized 2,8/9-PSA (details on α-2,8/9-PSA production, purification, and analysis are provided in Supplementary Information). Selectivity screening with monomeric sialic acid was conducted with mass and molar equivalents of N-acetylneuraminic acid (Rose Scientific, Ltd.) along with 10 μM CA (5 mL total volume each). The mass equivalent amount of sialic acid (specifically, 970 μM sialic acid for a given volume of 10 μM CA) was calculated for CA of an average degree of polymerization of 100. For study of pH-dependent binding, affinity screening with CA was performed using PBS buffers of pH 6.0, 7.0, 7.4, and 8.0 (10 mM phosphate, 100 mM NaCl). The impact of NaCl on peptide binding was assessed at pH 7.4 with 0, 100, and 200 mM NaCl.
Microarray image and data analysis was performed as described. […] Of the triplicate experiments used to generate mean microarray affinity intensities in standard conditions (within each of which 762 peptides were represented in triplicate), 225 out of 762 values in one of these three experiments were derived from raw data previously reported, but were alternatively analysed as stated. Peptide isoelectric points were calculated with the EMBOSS iep program.

[3] = FA assay with chondroitin sulphate A; conditions: FA assay as for peptide–PSA; triplicate measurements; read-out: KD for binding to CS-A
Method: (§1) a Neu5Ac concentration (µM) b Neu5Ac concentration (µM) c CS-A concentration (µM)
(§2) Supplementary Figure S4. (a–b) Interaction of I-P24 and I-P264 with Neu5Ac as asses sed by fluorescence anisotropy (FA) titrations in the (a) absence or (b ) presence of 500 µM P S A.
(§3) For a given volume, the highest concentration tested (150 mM) is approximately mass […]
(§4) equivalent to 1.5 mM PSA. […]
(§5) except for a small decrease in anisotropy at the highest concentrations of Neu 5Ac, indicating specific peptide binding to PSA. Error bars represent standard deviations from two independent experiments (0.15–15000 µM), with triplicate intra-as say measurements (0.15–150000 µM) .
(§6) (c) FA assay for binding of I-P24 and I-P264 to chondroitin sulphate A (CS-A). […] Anisotropies were determined from triplicate measurements (error bars excluded for clarity). […]
(§7) Asse ssment of selective binding of peptides with the FA assay is only presented in the context of alternative glycans as proof-of-principle above. However, given the comparatively lower sensitivity of microarray screening, FA may be employed for quantifying affinity in various buffers to asses s the effects of various ions, if any, on PSA binding. […]
(§8) (also on this page, place not known: Assessment assess assessed (b) Neu5Ac, PSA. intra-assay µM). assessment experiments, 5Ac (µM)a cNeu5Ac Anisotropy (mA) Anisotropy (mA) Anisotropy (mA)) […]

FA assay with Neu5Ac = format: binding; conditions: absence of PSA; Neu5Ac up to 150 mM; PBS pH 7.4
Method: as §1, §2, §3, §4, §5, §6, §7, §8

## CC(=O)N[C@@H](Cc1ccccc1)C(=O)N[C@@H](CCCCN)C(=O)NCC(=O)N[C@@H](CCCNC(=N)N)C(=O)N[C@H](C(=O)N[C@@H](CO)C(=O)N1CCC[C@H]1C(=O)N[C@@H](CCCCN)C(=O)N[C@H](C(=O)NCC(=O)N[C@@H](C)C(=O)N1CCC[C@H]1C(=O)N[C@H](C(=O)N[C@@H](C)C(=O)N[C@H](C(N)=O)[C@@H](C)O)C(C)C)[C@@H](C)O)[C@@H](C)O [I-P24] (Ac-FKGRTSPKTGAPVAT-NH2)
[1]; 500 µM PSA (CA), Neu5Ac 0–150 mM, PBS pH 7.4
  binding to PSA in competitive FA assay with Neu5Ac: largely maintained
[1]; FA titration, N-acetylated, C-terminally TAMRA-labelled peptide 20 nM, CA 0–1500 μM, PBS pH 7.4 (10 mM phosphate, 100 mM NaCl), 3 h, ~20 °C, four-parameter logistic fit, at least two independent experiments, at least triplicate, * = accuracy likely poor (SE > KD)
  Kd: 521 µM
[1]; from FA curve fits, among the peptides characterised with FA
  Bmax/KD ratio (binding potential): highest
[2]; pH 7.4
  change in microarray binding with 200 mM vs 100 mM NaCl: did not display any change in binding
[2]; pH 7.4, 0 mM NaCl
  microarray binding to PSA without NaCl: detectable binding
[2]; 762-peptide library, three independent screens, triplicate measurements
  microarray binding intensity (rank within library): top 2%
[3]
  Kd: > 1000 µM
FA assay with Neu5Ac
  binding to Neu5Ac by FA titration: minimal
